Results published in patent publication US7524836B2, “Nitrooxyderivative steroidal compounds” (Nicox S.A., priority 2001, dated 2009).
Where two headings read alike, the source gives them in different places.

Key:
[1] = Test 4: inhibition of radical production from DPPH; details: tested substance 10^-4 M (100 μM) in methanol, 30 minutes, absorbance at 517 nm
Description: [drawing 21] • wherein test 4 is the following: it is an analytical determination carried out by adding portions of methanol solutions of the precursor of B or B1 at a 10^−4 M concentration, to a methanol solution of DPPH (2,2-diphenyl-1-picryl hydrazyl-free radical); after having maintained the solution at room temperature away from light for 30 minutes, it is read the absorbance at the wave length of 517 nm of the test solution and of a solution containing only DPPH in the same amount as in the test solution; and then the inhibition induced by the precursor towards radical production by DPPH is calculated as a percentage by means of the following formula: (1−AS/AC)×100 wherein AS and AC are respectively the absorbance values of the solution containing the test compound+DPPH and that of the solution containing only DPPH; the acceptance criterium of the compounds according to this test is the following: test 4 is met by B or B1 precursor compounds if the inhibition percentage as above defined is higher than or equal to 50%;
Test 4 is a […] test which affords to establish whether the orecursors of B or B1 inhibit the production of radicals from DPPH (2,2-diphenyl-1-picryl-hydrazyl) (M. S. Nenseter et Al., Atheroscler. Thromb. 15, 1338-1344, 1995). 100 μM solutions in methanol of the tested substances are prepared, and an aliquot of each of said solutions is added to a DPPH solution in methanol […]. After having stored the solutions at room temperature away from light for 30 minutes, their absorbances are read at the wave length of 517 nm, together with that of the corresponding DPPH solution at the same concentration. The absorbance decrease with respect to that of the solution of DPPH at the same concentration of the test solutions is determined. The effectiveness of the tested compound in inhibiting formation of radicals by DPPH is expressed by the following formula: (1−AS/AC)×100 wherein AS and AC are respectively the absorbance values of the solution containing the test compound together with DPPH and of the solution containing only DPPH; the compounds precursor of B or B1 meet test 4 when the inhibition percentage of radical production from DPPH, expressed as a percentage according to the above equation, is higher than or equal co 50% at the indicated concentration (10^−4 M).
The method is based on a colorimetric test in which DPPH (2,2-diphenyl-1-picryl-hydrazyl) is used as the compound-forming radicals (M. S. Nenseter et Al., Atheroscler. Thromb. 15, 1338-1344, 1995).
Solutions in methanol of the tested substances at a final concentration 100 μM are initially prepared. 0.1 ml of each of these solutions are added to aliquots of 1 ml of a methanol solution […] of DPPH and then the final volume is brought to 1.5 ml. After having stored the solutions at room temperature away from light for 30 minutes, the absorbance at the wave length of […] is read. It is determined the absorbance decrease with respect to the absorbance of a solution containing the same concentration of DPPH.
The efficacy of the test compound to inhibit the production of radicals, otherwise said antiradical activity, is expressed by the following formula: (1−AS/AC)×100 wherein AS and AC are, respectively, the absorbance values of the solution containing the test compound together+DPPH and of the solution containing only DPPH. […]

[2] = Test 5: inhibition of radical production from Fe^II (desoxyribose degradation); details: 10^-4 M methanolic solution, 37° C. for one hour, absorbance at 532 nm
Description: […]
Test 5 is a […] test wherein 0.1 ml aliquots of 10^−4 M methanolic solutions of the tested products are added to test tubes containing a solution formed by 0.2 ml of 2 mM desoxyribose, 0.4 ml of phosphate buffer pH 7.4 100 mM and 0.1 ml of 1 mM Fe^II(NH4)2(SO4)2 in 2 mM HCl. […] A pink coloration is developed the intensity of which is proportional to the quantity of desoxyribose undergone to radical oxidative degradation. The solutions are cooled at room temperature and their absorbances are read at 532 nm against the blank. The inhibition induced by the precursor of B or B1 or C=-TC-Y—H in comparison with the radical production by Fe^II is determined by means of the following formula: (1−AS/AC)×100 wherein AS and AC are respectively the absorbance values of the solution containing the tested compound+the iron salt and that of the solution containing only the iron salt, the compound meets test 5 when the inhibition percentage of radical production as above defined from the precursor of B or B1 or C=-TC-Y—H is higher than or equal to 50%. […]

[3] = system: rats treated or not treated with L-NAME; parameters: species or system rat (Long Evans); details: rat, in vivo, ip; for GPT var. %: 100 mg/kg
Description: In those groups of rats treated, respectively, with ursodesoxycholic acid and chenodeoxycholic acid and thereof corresponding compounds according to the present invention, GPT is determined.
At the end of the four weeks access to water is prevented and after 24 hours the animals are sacrificed.
1st group receiving L-NAME (group d-comparative) administered at the same time with 100 mg/Kg (0.25 mmoles/Kg) of ursodesoxycholic acid+49.5 mg/Kg (0.25 mmoles/Kg) of ferulic acid in the same above carrier, • c. 2nd group receiving L-NAME (group e) administered with 175 mg/Kg (0.25 mmoles/Kg) of the ursodesoxycholic derivative according to the invention (ref. ex. 1) in the same above carrier.

[4] = system: rats treated or not treated with L-NAME; details: rat, in vivo, ip
Description: The endothelial dysfunction is evaluated by determining the damage the hepatic damage (GPT increase), and the vascular endothelium or cardiovascular damage (blood hypertension) induced by L-NAME admirnistration.
The animals (Long Evans rats, average weight 350-450 g) are divided n groups as herein below described. The group receiving L-NAME is treated for 4 weeks with said compound dissolved at the concentration of 400 mg/litre in drinking water. The following groups (No. 10 animals for group) are constituted:
• 1° group: treatment: only carrier (physiologic solution), • 2° group: trealtmrent: carrier +L-NAME, B) Groups Treated with the Drug: • 3° group: treatment: carrier+drug, • 4° group: treatment: carrier+drug+L-NAME.
Each drug is administered by intraperitoneal route once a day for 4 weeks.
Four hours after the last administration the blood-pressure is determined.
Damage to the vascular endothelium is determined, as said by the cardiovascular effects induced by L-NAME (increase of the blood pressure).
In this experiment vascular tolerability, i.e. the rise in blood pressure (vascular damage) was determined in the animals of groups b and c and expressed as percentages to that of the control group a, assumed to be 100%.

O=C(O)C1CSCN1 (stereo not drawn) [4-thiazolidin carboxylic acid]
% inhibition radical production from DPPH ([1]; 100 µM): does not inhibit
% Radical Inhibition from Fe^II [2]: 100%

N[C@@H](CS)C(=O)O [Cysteine]
% inhibition radical production from DPPH ([1]; 100 µM): 100%

COc1cc(/C=C/C(=O)OCCCCO[N+](=O)[O-])ccc1OC(=O)CC[C@@H](C)[C@H]1CCC2C3C(CC[C@@]21C)[C@@]1(C)CC[C@@H](O)C[C@H]1C[C@@H]3O (stereo partly drawn) [Example 1, 3-[4-[(3α,5β,7β)-3,7-dihydroxycolan-24-oiloxy]-3-methoxyphenyl]-2-propenoic acid 4-nitroxybutyl ester]
GPT var. % [3]: 103%
GPT variation % ([3]; 175 mg/kg): 123%

COc1cc(/C=C/C(=O)OCCCCO[N+](=O)[O-])ccc1OC(=O)CC[C@@H](C)[C@H]1CCC2C3C(CC[C@@]21C)[C@@]1(C)CC[C@@H](O)C[C@H]1C[C@H]3O (stereo partly drawn) [Example 2, 3-[4-[(3α,5β,7α)-3,7-dihydroxycolan-24-oiloxy]-3-methoxyphenyl]-2-propenoic acid 4-nitroxybutyl ester]
GPT var. % [3]: 105%

CC(=O)N[C@@H](CSC(=O)CCCO[N+](=O)[O-])C(=O)OCC(=O)[C@@]1(O)CC[C@H]2[C@@H]3CCC4=CC(=O)C=C[C@]4(C)[C@H]3[C@@H](O)C[C@@]21C [Example 3, (11β)-11,17-dihydroxy-21[N-acetyl-S-(4-nitroxybutyroyl)cysteinyloxy]-pregn-1,4-diene-3,20-dione]
Blood pressure variation % ([4]; 10 mg/kg): 102%

CC(=O)N[C@@H](CSC(=O)CCCO[N+](=O)[O-])C(=O)OCC(=O)[C@@]1(O)CC[C@H]2[C@@H]3CCC4=CC(=O)CC[C@]4(C)[C@H]3[C@@H](O)C[C@@]21C [Example 4, (11β)-11,17-Dihydroxy-21[N-acetyl-S-(4-nitroxybutyroyl)cysteinyloxy]-pregn-4-ene-3,20-dione]
Blood pressure variation % ([4]; 10 mg/kg): 98%

CC(=O)N[C@@H](CSC(=O)CCCO[N+](=O)[O-])C(=O)OCC(=O)[C@@]1(O)[C@H](C)C[C@H]2[C@@H]3CCC4=CC(=O)C=C[C@]4(C)[C@@]3(F)[C@@H](O)C[C@@]21C [Example 5, (11β,16α)-9-Fluoro-11,17-dihydroxy-21[N-acetyl-S-(4-nitroxybutyroyl)cysteinyloxy]-16-methylpregn-1,4-diene-3,20-dione]
Blood pressure variation % ([4]; 5 mg/kg): 103%
Blood pressure variation % ([4]; 42.5 mg/kg): 125%

COc1cc(/C=C/C(=O)O)ccc1O [Ferulic acid]
% inhibition radical production from DPPH ([1]; 100 µM): 100%

O=C(O)c1cc(O)ccc1O [Gentisic acid]
% inhibition radical production from DPPH ([1]; 100 µM): 80%

CC(=O)N[C@@H](CS)C(=O)O [N-acetylcysteine]
% inhibition radical production from DPPH [1]: 100%

C[C@H](CCC(=O)O)[C@H]1CC[C@H]2[C@@H]3[C@H](O)C[C@@H]4C[C@H](O)CC[C@]4(C)[C@H]3CC[C@]12C [chenodeoxycholic acid]
GPT var. % [3]: 150%

C[C@@H]1C[C@H]2[C@@H]3CCC4=CC(=O)C=C[C@]4(C)[C@@]3(F)[C@@H](O)C[C@]2(C)[C@@]1(O)C(=O)CO [dexamethasone]
Blood pressure variation % ([4]; 5 mg/kg): 125%

C[C@]12CCC(=O)C=C1CC[C@@H]1[C@@H]2[C@@H](O)C[C@@]2(C)[C@H]1CC[C@]2(O)C(=O)CO [hydrocortisone]
Blood pressure variation % ([4]; 10 mg/kg): 115%

C[C@]12C=CC(=O)C=C1CC[C@@H]1[C@@H]2[C@@H](O)C[C@@]2(C)[C@H]1CC[C@]2(O)C(=O)CO [prednisolone]
Blood pressure variation % ([4]; 10 mg/kg): 119%

C[C@H](CCC(=O)O)[C@H]1CC[C@H]2[C@@H]3[C@@H](O)C[C@@H]4C[C@H](O)CC[C@]4(C)[C@H]3CC[C@]12C [ursodesoxycholic acid]
GPT var. % [3]: 130%
